Reference: paper PMC5999181, “UMP kinase activity is involved in proper chloroplast development in rice” (Photosynthesis Research, 2018)

Target: T1, YL2 (YL2-His) (Oryza sativa, UniProt Q5JJV9)
T1 construct: gene Os01g0965400; full-length cDNA (351 residues including putative 58-residue transit peptide) in pET44a, E. coli BL21, Ni-NTA
T1 sequence (Q5JJV9 1-351): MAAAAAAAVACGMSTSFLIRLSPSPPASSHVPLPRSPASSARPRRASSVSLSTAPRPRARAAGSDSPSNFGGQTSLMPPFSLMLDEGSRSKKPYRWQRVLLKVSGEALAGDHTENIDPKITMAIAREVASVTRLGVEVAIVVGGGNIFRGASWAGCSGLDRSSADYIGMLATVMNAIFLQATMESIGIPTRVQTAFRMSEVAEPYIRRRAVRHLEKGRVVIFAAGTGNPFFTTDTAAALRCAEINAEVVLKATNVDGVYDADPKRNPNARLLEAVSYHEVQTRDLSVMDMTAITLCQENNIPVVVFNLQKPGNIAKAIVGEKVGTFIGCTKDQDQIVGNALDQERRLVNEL
Assay: Kinase-Glo luminescence (residual ATP)
Format: biochemical
Details: 0.2 mM UMP, 10 μM ATP, 10 mM MgCl2, 1 mM DTT, 50 mM Tris-HCl pH 7.5, 30 °C, 0.5 h

## O=c1ccn([C@@H]2O[C@H](COP(=O)(O)O)[C@@H](O)[C@H]2O)c(=O)[nH]1 [UMP]
  Kinase-Glo luminescence (residual ATP): confirming that YL2 has prokaryotic UMP kinase activity in vitro

## Nc1ncnc2c1ncn2[C@@H]1O[C@H](COP(=O)(O)OP(=O)(O)OP(=O)(O)O)[C@@H](O)[C@H]1O [ATP]
  Kinase-Glo luminescence (residual ATP): decreased levels of RLU, reflecting the amount of residual ATP remaining after the UMP kinase reaction
